Usually melting point stands for the temperature, or range, at which the solid turns liquid. The pKi is the negative decadic logarithm of the Ki, by convention in mol/L. A word on the IC50: it is the concentration that inhibits the measured activity by half.

Each structure is given as a SMILES string. pKi: −log10 of the molar value. Where a name gives a salt, the structure may show the parent alone. Read-outs that look alike come from different tables or passages of the source. A value given as a limit tells only on which side of the number the result lay.

One series addresses T1, serotonin transporter (Rattus norvegicus, UniProt P31652).
T1 construct: displace ^3H-paroxetine from male rat frontal cortical membranes; from tissue; host or cells: male rat frontal cortex membranes
Put plainly: 3H-paroxetine displacement from male rat frontal cortical membranes (affinity for the serotonin transporter). The note with it: read-out: 5-HT Transporter Affinity KI. The class given is binding.

For the next series, the target named is T2, human 5-HT1A receptors (Homo sapiens, UniProt P08908).
T2 construct: expressed in transfected cells; host or cells: CHO cells
T2 sequence (P08908 1-422): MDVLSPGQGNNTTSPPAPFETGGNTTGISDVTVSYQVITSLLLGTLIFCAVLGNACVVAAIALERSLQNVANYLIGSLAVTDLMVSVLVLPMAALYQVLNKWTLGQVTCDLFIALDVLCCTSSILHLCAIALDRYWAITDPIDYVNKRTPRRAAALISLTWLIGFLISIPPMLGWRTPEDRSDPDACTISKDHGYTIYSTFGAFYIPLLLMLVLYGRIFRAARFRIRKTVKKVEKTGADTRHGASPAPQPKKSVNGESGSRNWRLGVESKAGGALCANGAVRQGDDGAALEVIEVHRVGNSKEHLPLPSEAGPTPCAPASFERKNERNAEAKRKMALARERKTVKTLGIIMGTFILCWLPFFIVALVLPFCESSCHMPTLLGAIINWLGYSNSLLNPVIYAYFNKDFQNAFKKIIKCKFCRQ
The series is described as follows: [3H] 8-OHDPAT displacement from 5-HT1A receptor, CHO cells stably transfected with human 5-HT1A receptors. Format: binding. The note with it: read-out: 5-HT1A Function KI. The source says:
High affinity for the serotonin 5-HT1A receptor was established by testing the claimed compound's ability to displace [^3H] 8-OHDPAT (dipropylaminotetralin) from the 5-HT1A serotonin receptor following a modification of the procedure of Hall et al., J. Neurochem. 44, 1685 (1985) which utilizes CHO cells stably transfected with human 5-HT1A receptors.

Series [1] has as its target T3, cloned human 5-HT1A receptors (Homo sapiens, UniProt P08908).
T3 construct: expressed in transfected cells
T3 sequence (P08908 1-422): T2 sequence (P08908 1-422)
The series is described as follows: 35S-GTPγS binding assay, antagonist activity at 5-HT1A receptors. The class given is biochemical. The conditions noted are these: for IC50: potency in reversing the effects of the standard agonist 8-OHDPAT, read-out: 5-HT1A Receptor Affinity IC50 (nM) (Imax): IC50; for Emax: read-out: 5-HT1A Receptor Affinity IC50 (nM) (Imax): Imax. As for the experimental part: Antagonist activity at 5-HT1A receptors was established by using a ^35S-GTPγS binding assay similar to that used by Lazareno and Birdsall (Br. J. Pharmacol. 109: 1120, 1993), in which the test compound's ability to affect the binding of ^35S-GTPγS to membranes containing cloned human 5-HT1A receptors was determined. Agonists produce an increase in binding whereas antagonists produce no increase but rather reverse the effects of the standard agonist 8-OHDPAT. The test compound's maximum inhibitory effect is represented as the Imax, while its potency is defined by the IC50.
On the technique in general: GTPγS is a poorly hydrolysed GTP analogue; its binding reports G protein activation.

[2] abbreviates: value in brackets, maximum inhibitory effect.

T1 sequence (P31652 whole entry): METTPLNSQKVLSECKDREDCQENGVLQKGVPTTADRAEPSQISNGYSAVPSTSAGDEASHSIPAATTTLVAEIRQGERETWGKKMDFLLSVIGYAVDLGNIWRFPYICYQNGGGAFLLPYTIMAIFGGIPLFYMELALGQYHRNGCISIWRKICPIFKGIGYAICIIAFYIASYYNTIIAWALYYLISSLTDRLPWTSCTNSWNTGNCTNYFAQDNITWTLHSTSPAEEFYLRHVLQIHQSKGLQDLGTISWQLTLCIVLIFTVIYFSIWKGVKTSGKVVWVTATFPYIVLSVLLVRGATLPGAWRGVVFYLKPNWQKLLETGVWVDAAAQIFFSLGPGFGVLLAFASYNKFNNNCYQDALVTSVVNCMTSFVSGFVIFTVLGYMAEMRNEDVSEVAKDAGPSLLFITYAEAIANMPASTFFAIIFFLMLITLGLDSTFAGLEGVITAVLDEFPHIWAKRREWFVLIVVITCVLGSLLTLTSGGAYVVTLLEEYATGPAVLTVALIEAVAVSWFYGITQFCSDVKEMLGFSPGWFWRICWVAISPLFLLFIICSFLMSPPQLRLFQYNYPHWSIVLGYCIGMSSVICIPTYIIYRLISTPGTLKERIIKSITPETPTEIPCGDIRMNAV

With `Cc1ccc2c3c(ccc2n1)OC[C@H](CN1CCC(Cn2ccc4ccc(F)cc42)CC1)O3` (as salt: fumarate) [Example 6], the melting point lay within 140 to 142 °C.

Compound `Cc1ccc2c3c(ccc2n1)OC[C@H](CN1CCC(Cn2ccc4ccc(C#N)cc42)CC1)O3` (as salt: fumarate) [Example 8] showed a melting point of 178 to 180 °C.

As to `Cc1ccc2c3c(ccc2n1)OCC(CN1CC(Cc2c[nH]c4ccc(F)cc24)C1)O3` (stereo not shown) (as salt: hydrochloride) [Example 1, 2-[3-(5-Fluoro-1H-indol-3-ylmethyl)-azetidin-1-ylmethyl]-8-methyl-2,3-dihydro-[1,4]dioxino[2,3-f]quinoline], the melting point was 125 °C (dec.).

As for `Cc1ccc2c3c(ccc2n1)OCC(CN1CCCC(Cc2c[nH]c4ccc(F)cc24)C1)O3` (stereo not shown) (as salt: hydrochloride) [Example 2, 2-[3-(5-Fluoro-1H-indol-3-ylmethyl)-piperidin-1-ylmethyl]-8-methyl-2,3-dihydro-[1,4]dioxino[2,3-f]quinoline], the melting point was 68 °C (dec.).

`CCc1ccc2c3c(ccc2n1)OC[C@H](CN1CCC(Cn2ccc4ccc(F)cc42)CC1)O3` (as salt: hydrochloride) [Example 7] had a melting point of more than 250 °C.

As to `Cc1ccc2c3c(ccc2n1)OCC(CN1CC(CCn2ccc4ccc(F)cc42)C1)O3` (stereo not shown) (as salt: hydrochloride) [Example 10, 2-{3-[2-(6-Fluoro-indol-1-yl)-ethyl]-azetidin-1-ylmethyl}-8-methyl-2,3-dihydro-[1,4]dioxino[2,3-f]quinoline], the melting point was 115 °C (dec.).

In the case of `Cc1ccc2c3c(ccc2n1)OC[C@H](CN1CC(CCn2ccc4ccc(C#N)cc42)C1)O3` (as salt: hydrochloride) [Example 11, 1-{2-[1-(8-Methyl-2,3-dihydro-[1,4]-dioxino[2,3-f]quinolin-2-ylmethyl)-azetinin-3-yl]-ethyl}-1H-indole-6-carbonitrile], the melting point is 144 °C (dec.).

As to `Cc1ccc2c3c(ccc2n1)OC[C@H](CN1CC(Cc2cn(C)c4ccc(F)cc24)C1)O3` (as salt: oxalate) [Example 5], the melting point lay in the range of 193 to 195 °C.

On to `Cc1ccc2c3c(ccc2n1)OCC(CN1CCCC(Cc2c[nH]c4cc(F)ccc24)C1)O3` (stereo not shown) (as salt: salt) [Example 3, 2-[3-(6-Fluoro-1H-indol-3-ylmethyl)-piperidin-1-ylmethyl]-8-methyl-2,3-dihydro-[1,4]dioxino[2,3-f]quinoline], for which the melting point is 50 °C (dec.).

As to `Cc1ccc2c3c(ccc2n1)OCC(CN1CC(Cn2ccc4ccc(F)cc42)C1)O3` (stereo not shown) (as salt: salt) [Example 9, 2-[3-(6-Fluoro-indol-1-ylmethyl)-azetidin-1-ylmethyl]-8-methyl-2,3-dihydro-[1,4]dioxino[2,3-f]quinoline], the melting point was 138 °C (dec.).

On to `Cc1ccc2c3c(ccc2n1)OCC(CN1CC(Cc2c[nH]c4ccc(F)cc24)C1)O3` (stereo not shown) [Example 1, 2-[3-(5-Fluoro-1H-indol-3-ylmethyl)-azetidin-1-ylmethyl]-8-methyl-2,3-dihydro-[1,4]dioxino[2,3-f]quinoline], for which the negative logarithm of the Ki (pKi) at serotonin transporter is 8.89; on human 5-HT1A receptors, 8.60. Further, the IC50 in series [1] amounted to 59.5 nM. Moreover, the Emax in series [1] (setting [2]) was determined as 73.7%.

Regarding `Cc1ccc2c3c(ccc2n1)OCC(CN1CCCC(Cc2c[nH]c4ccc(F)cc24)C1)O3` (stereo not shown) [Example 2, 2-[3-(5-Fluoro-1H-indol-3-ylmethyl)-piperidin-1-ylmethyl]-8-methyl-2,3-dihydro-[1,4]dioxino[2,3-f]quinoline], the negative-log Ki (pKi) on serotonin transporter was 7.82; at human 5-HT1A receptors, 8.48. Besides, in series [1], the IC50 is 552 nM. For the same compound, the Emax in series [1] (setting [2]) turned out to be 100%.

For `Cc1ccc2c3c(ccc2n1)OCC(CN1CCCC(Cc2c[nH]c4cc(F)ccc24)C1)O3` (stereo not shown) [Example 3, 2-[3-(6-Fluoro-1H-indol-3-ylmethyl)-piperidin-1-ylmethyl]-8-methyl-2,3-dihydro-[1,4]dioxino[2,3-f]quinoline], the results for the pKi on serotonin transporter and on human 5-HT1A receptors were 7.82 and 8.47, respectively. Further, the IC50 in series [1] came out at 666 nM. Further, the Emax in series [1] (setting [2]) was 100%.

Consider `Cc1ccc2c3c(ccc2n1)OCC(CN1CC(Cc2c[nH]c4ccccc24)C1)O3` (stereo not shown) [Example 4, 2-[3-(1H-Indol-3-ylmethyl)-azetidin-1-ylmethyl]-8-methyl-2,3-dihydro-[1,4]dioxino[2,3-f]quinoline], for which the pKi on serotonin transporter was 9.25. For the same compound, the pKi at human 5-HT1A receptors is 8.04. Also, in series [1], the IC50 amounted to 37.2 nM and the Emax amounted to 76.4%.

Regarding `Cc1ccc2c3c(ccc2n1)OC[C@H](CN1CC(Cc2cn(C)c4ccc(F)cc24)C1)O3` [Example 5], the figures for the pKi on serotonin transporter and on human 5-HT1A receptors were 9.14 and 7.78, respectively. The concentration for half-maximal inhibition (IC50) in series [1] was found to be 34.5 nM. Further, the Emax in series [1] (setting [2]) worked out at 96.3%.

For `Cc1ccc2c3c(ccc2n1)OC[C@H](CN1CCC(Cn2ccc4ccc(F)cc42)CC1)O3` [Example 6], the pKi at serotonin transporter was 9.00; at human 5-HT1A receptors, 8.02. Further, in series [1], the IC50 stood at 242 nM. In series [1] (setting [2]), the Emax was 85.5%.

With `CCc1ccc2c3c(ccc2n1)OC[C@H](CN1CCC(Cn2ccc4ccc(F)cc42)CC1)O3` [Example 7], the pKi was 8.79 at serotonin transporter and 7.82 on human 5-HT1A receptors. For the same compound, the half-inhibitory concentration (IC50) in series [1] stood at 208 nM. In addition, in series [1] (setting [2]), the Emax was 81.5%.

`Cc1ccc2c3c(ccc2n1)OC[C@H](CN1CCC(Cn2ccc4ccc(C#N)cc42)CC1)O3` [Example 8]: the pKi at serotonin transporter is 9.22; on human 5-HT1A receptors it was 8.18. For the same compound, in series [1], the half-maximal inhibitory concentration (IC50) is 243 nM. Also, the Emax in series [1] (setting [2]) came to 100%.

As to `Cc1ccc2c3c(ccc2n1)OCC(CN1CC(Cn2ccc4ccc(F)cc42)C1)O3` (stereo not shown) [Example 9, 2-[3-(6-Fluoro-indol-1-ylmethyl)-azetidin-1-ylmethyl]-8-methyl-2,3-dihydro-[1,4]dioxino[2,3-f]quinoline], the pKi at serotonin transporter was 9.96; on human 5-HT1A receptors, 7.26.

`Cc1ccc2c3c(ccc2n1)OCC(CN1CC(CCn2ccc4ccc(F)cc42)C1)O3` (stereo not shown) [Example 10, 2-{3-[2-(6-Fluoro-indol-1-yl)-ethyl]-azetidin-1-ylmethyl}-8-methyl-2,3-dihydro-[1,4]dioxino[2,3-f]quinoline]: the negative logarithm of the Ki (pKi) on serotonin transporter is 8.37; at human 5-HT1A receptors, 8.72. For the same compound, the IC50 in series [1] was found to be 343 nM. Also, the Emax in series [1] (setting [2]) was 80%.

`Cc1ccc2c3c(ccc2n1)OC[C@H](CN1CC(CCn2ccc4ccc(C#N)cc42)C1)O3` [Example 11, 1-{2-[1-(8-Methyl-2,3-dihydro-[1,4]-dioxino[2,3-f]quinolin-2-ylmethyl)-azetinin-3-yl]-ethyl}-1H-indole-6-carbonitrile]: the pKi at serotonin transporter was 8.54; at human 5-HT1A receptors, 8.82. Besides, the IC50 in series [1] amounted to 251 nM. Further, in series [1] (setting [2]), the Emax is 85%.

For `Cc1ccc2[nH]cc(CC3CN(C[C@H]4COc5ccc6nc(C)ccc6c5O4)C3)c2c1` [Example 12, 8-Methyl-2-[3-(5-methyl-1H-indol-3-ylmethyl)-azetidin-1-ylmethyl]-2,3-dihydro-[1,4]dioxino[2,3-f]quinoline], the negative logarithm of the Ki (pKi) on serotonin transporter was 8.98. For the same compound, the IC50 in series [1] turned out to be 38.6 nM. Also, the Emax in series [1] (setting [2]) amounted to 89.5%.

The values are drawn from patent US7135479B2, “Antidepressant azaheterocyclylmethyl derivatives of heterocycle-fused benzodioxans” (Wyeth, priority 2002, dated 2006).
